Experimental findings from US20130072459A1, “PHARMACEUTICAL COMPOSITION FOR THE PREVENTION OR THE TREATMENT OF NON-ALCOHOLIC FATTY LIVER DISEASE AND THE METHOD FOR PREVENTION OR TREATMENT OF NON-ALCOHOLIC FATTY LIVER DISEASE USING THE SAME” (priority 2010, published 2013) are described below.

One assay deals with HepG2 cells. Description: Free fatty acid-induced intracellular fat accumulation, Nile Red staining. It is filed as cell-based, human. The conditions noted are these: 0.5 mM free fatty acid, 24 hours. How it is done: By a combined treatment of free fatty acid and a drug, inhibitory effects of individual drugs on intracellular fat accumulation were quantified using a triglyceride staining method. The human hepatoma cell line, HepG2 cells were cultured in a minimum essential medium (MEM) containing 10(v/v) % fetal bovine serum for 48 hours. […] For the negative control group, a MEM containing 1(v/v) % bovine serum albumin was treated with 0.1(v/v) % dimethyl sulfoxide with no addition of free fatty acid. After the culture was complete, the medium was removed and the cells were washed with a phosphate buffer. […] After the staining was complete, the supernatant was discarded and replaced with a phosphate buffer, followed by measurement of fluorescence intensities under conditions of a 488 nm excitation wavelength and a 550 nm emission wavelength. Then, in order to correct a deviation according to the cell count, a phosphate buffer containing 10 μM resazurin (Sigma) dissolved therein was added to the same well. Thereafter, before and after the reaction at 37° C. for 1 hour under light-shielded conditions, fluorescence intensities were measured using a fluorometer under conditions of a 535 nm excitation wavelength and a 580 nm emission wavelength, whereby an increase in fluorescence intensity due to resorufin reduced and formed by the intracellular mitochondrial activity was measured. Using the value of a fluorescence intensity of Nile Red corrected in terms of an increase in fluorescence intensity due to the reduction of resazurin, the experimental results were expressed as a percentage for the fat accumulation increased by a treatment with free fatty acid, as compared to the negative control group.

In assay [1] the test system is activated hepatic stellate cells. Description: Expression of activity indicator proteins (TGFβ1, α-SMA) in activated hepatic stellate cells, Western blot. The settings on record: for 1 ng/mL TGFβ1-induced protein expression inhibition rate, TGFβ1 / 1 ng/mL TGFβ1-induced protein expression inhibition rate, α-SMA: 100 μM compound, 7 days, N = 3, corrected by β-actin; for protein expression levels of TGFβ1 and α-SMA, result in words: hTGF-β1-activated rat hepatic stellate cells. The class given is cell-based, rat (Wistar). As to the method: An inhibitory action of the compounds of the present invention on the activation of hepatic stellate cells was tested according to the following cell culture method. Male rats (Wistar rats), weighing 500 to 700 g, were anesthetized, followed by an abdominal incision, and cannulae were connected to hepatic portal veins, followed by sequential perfusion with a Hank's Balanced Salt Solution (HBSS) containing heparin and an HBSS containing type 1 collagenase. After the perfusion was complete, the liver was excised, ground with surgical scissors, and added to an HBSS containing type 1 collagenase, followed by shaking culture at 37° C. for 15 minutes. The completely ground liquid-state liver tissue was passed through gauze and centrifuged at 500 g for 10 minutes. The resulting mingled cell precipitate was washed with a phosphate buffer, followed by centrifugation at 100 g for 5 minutes, and the supernatant was collected. The supernatant was further centrifuged at 500 g for 10 minutes to obtain a precipitate to which a 9:1 (v/v) mixture of a Ficoll liquid (GE Healthcare) and a Percoll liquid (GE Healthcare) was added, followed by mixing. A phosphate buffer was gently placed on the mixed layer, followed by centrifugation at 1,400 g for 15 minutes. Then, the cell layer formed between the upper layer and the lower layer was recovered and washed once with a Dulbecco's Modified Eagle Medium (DMEM) containing 10(v/v) % fetal bovine serum. The resulting cells were added at a cell density of 3.1×10^5 cells/cm^2, the medium was exchanged with a fresh medium after 24 hours, and cultured for 7 days with exchange of the medium at intervals of 2 to 3 days. Then, the drugs were treated at specified concentrations in a medium containing 1 ng/ml of a human transforming growth factor (TGF) β1 and a medium containing no TGF β1. TGF β1 was dissolved in dimethylsulfoxide (DMSO) to a concentration 1.000-fold higher than the desired treatment concentration of the drug, 1.000-fold diluted in a medium to be a 1-fold (1×) volume, and then treated on cells. After 7 days of the drug treatment, the medium was harvested and washed with a phosphate buffer. A buffer containing a surfactant was added thereto and the cells were lysed. Then, proteins were quantified, electrophoresed on a 4-12% Bis-Tris gel (Invitrogen), and transferred to a nitrocellulose membrane. The transferred proteins were reacted with primary antibodies specific for α-smooth muscle actin (α-SMA) or TGFβ1, and then reacted with horse radish peroxidase-conjugated specific secondary antibodies. The expression level of the target protein was confirmed using a chemiluminescent liquid and corrected in terms of actin (β-actin) expression level (FIG. 9). The decrement of observed protein expression by 100 μM of individual compounds of the present invention was expressed as a percentage drug-induced decrement, based an increment of protein expression in the TGFβ1-treated positive control group relative to the negative control group to which only DMSO was added (Table 3).
On the technique in general: Immunoblotting shows a protein as a band on a membrane.

Assay [2] has as its system high fat diet-induced simple steatosis. Kind of assay: Non-alcoholic fatty liver-preventing effects on high fat diet-induced simple steatosis in mice (oral, 28 days). The conditions noted are these: for Triglyceride increase inhibition (%) relative to high fat diet-fed group / Triglyceride increment (%) relative to standard diet-fed group: 28 days, high fat diet. The class given is in vivo, C57BL/6 mice. As to the method: 7-week old male C57BL/6 mice were stabilized and then divided into 9 groups (n=9) according to the body weight and blood glucose level. A standard diet-fed group and a high fat diet-fed group were orally administered a vehicle solution (0.5% MC (methylene cellulose)) of each diet once a day at a dose of 10 ml/kg, and the remaining groups were orally given once a day for 28 days a high fat diet in conjunction with tartrate of Compound 1 at doses of 30, 100 and 300 mg/kg, sitagliptin phosphate at doses of 100 and 300 mg/kg, and vildagliptin at doses of 100 mg/kg and 300 mg/kg, respectively, according to the designated groups. 24 hours after the final oral administration, animals were dissected and the excised liver was homogenized in a 5(v/v) % Triton-X solution to which a triglyceride working reagent was then added, followed by measurement of an absorbance at 540 nm to determine the content of triglyceride (Table 2). In addition, a portion of the excised liver was fixed in a 10(v/v) % formalin solution and then a tissue sample was prepared, followed by hematoxylin & eosin(HE) staining and photographing (FIG. 8).

The next assay has as its system TGF-β1. Description: TGF-β1 mRNA expression in liver, CCl4-induced acute hepatic damage mouse model. The conditions noted are these: for TGF-β1 expression inhibition rate (% CCl4 control group) / TGF-β1 expression (normalized by actin): 3 days; for TGF-β1 expression (normalized by actin): CCl4 0.1 ml/kg i.p. It is filed as in vivo, C57BL/6 mice. How it is done:
In order to investigate inhibitory effects of compounds of the present invention on expression of TGF-β1 which is known to play a crucial role in a fibrosis process of hepatocytes in a CCl4-induced acute hepatic damage mouse model, the following experiment was carried out. 7-week old male C57BL/6 mice were stabilized and divided into 9 groups (n=7) according to the body weight, followed by intraperitoneal administration of CCl4 (0.1 ml/kg). The normal control group was administered an olive oil. The control group was orally administered a vehicle solution (0.5% MC) once a day at a dose of 10 ml/kg, at intervals of 24 hours for 3 days. The remaining groups were orally administered once a day tartrate of Compound 1 at doses of 30, 100 and 300 mg/kg, sitagliptin phosphate (prepared according to the method described in WO2004/085378 or WO2005/003135) at doses of 100 and 300 mg/kg, and vildagliptin (Trademax, China) at doses of 100 and 300 mg/kg, respectively, according to the designated groups. 1 hour after the final oral administration, animals were dissected and the excised liver was subjected to evaluation of TGF-β1 mRNA expression. The liver tissue stored in liquid nitrogen was homogenized in a TRIZOL solution and then the total RNAs were extracted. The isolated RNAs were diluted to a concentration of 1 μg/μL in 0.1(v/v) % DEPC (diethyl pyrocarbonate), and then the RNA mixture [2 μg/μL each RNA+2 μL of 0.5 μg/μL oligo d(T)15+up to 15 μL of 0.1% DEPC water] was incubated using a PCR apparatus at 72° C. for 5 minutes, followed by quenching on ice. The mixture [1 μL of PCR nucleotide mix+5 μL of 5×MMLV RT bf.(Promega, M531A)+1 μL of […] M-MLV reverse] was prepared, and then subjected to elongation at 42° C. for 60 minutes, denaturation at 95° C. for 5 minutes and quenching at 8° C. to synthesize cDNAs which were stored at −20° C. until subsequent use. In order to carry out RT-PCR, the mixture [1 μL of 20 pmol each Primer+9.5 μL of Nuclease-free water] was prepared and then 2 μL of each cDNA was placed in sterile PCR tubes to which 12.5 μL of remix Taq™ (RR003A, TaKaRa) was then added, followed by mixing. PCR was carried out under the following conditions (Table 4), using Thermal Cycler (PTC-200, MJ Research). PCT products were electrophoresed and analyzed using an Image Analyzer (Vilber Lourmat). Using β-actin expression, the expression of a target gene TGF-β1 was subjected to normalization (FIG. 11).

On to `CN(C)C(=N)N=C(N)N` [metformin], for which the inhibition at 1000 µM in the assay with HepG2 cells (Homo sapiens, HepG2, 1 mM, read-out: inhibitory effects on free fatty acid-induced fat accumulation) was 23.6 ± 5%.
For the compound `CC#CCn1c(N2CCC[C@@H](N)C2)nc2c1c(=O)n(Cc1nc(C)c3ccccc3n1)c(=O)n2C` [linagliptin], in assay [1], the “1 ng/mL TGFβ1-induced protein expression inhibition rate, TGFβ1” value stood at 64 ± 17.2%; the “1 ng/mL TGFβ1-induced protein expression inhibition rate, α-SMA” value was 159 ± 17.5%; the “protein expression levels of TGFβ1 and α-SMA, result in words” value is listed as “lowered”.
As to `N#C[C@@H]1CCCN1C(=O)CNC12CC3CC(CC(O)(C3)C1)C2` [vildagliptin], in assay [2] (100 mg/kg oral once a day), the “Triglyceride increase inhibition (%) relative to high fat diet-fed group” value stood at 24% and the “Triglyceride increment (%) relative to standard diet-fed group” value is listed as 38%. Also, in assay [2] (300 mg/kg oral once a day), the “Triglyceride increase inhibition (%) relative to high fat diet-fed group” value is 79% and the “Triglyceride increment (%) relative to standard diet-fed group” value came out at 11%. Also, the “lipid droplets in liver tissue sample (histological evaluation), result in words” value in assay [2] (HE staining, FIG. 8) is listed as “reduction of lipid droplets”. Also, the “maximum decrement of the hepatic triglyceride content relative to the high fat diet-fed group” value in assay [2] (maximum over the doses tested) is listed as 79%. Moreover, in assay [1], the “1 ng/mL TGFβ1-induced protein expression inhibition rate, TGFβ1” value was determined as 14 ± 32.8%; the “1 ng/mL TGFβ1-induced protein expression inhibition rate, α-SMA” value was −56 ± 8.4%; the “protein expression levels of TGFβ1 and α-SMA, result in words” value is “lowered”. For the same compound, in the assay on TGF-β1 (100 mg/kg oral once a day), the “TGF-β1 expression inhibition rate (% CCl4 control group)” value came out at 92% and the “TGF-β1 expression (normalized by actin)” value was 1.02 ± 0.09. For the same compound, in the assay on TGF-β1 (300 mg/kg oral once a day), the “TGF-β1 expression inhibition rate (% CCl4 control group)” value is given as 115% and the “TGF-β1 expression (normalized by actin)” value is reported as 0.96 ± 0.12. In addition, the “maximum decrement in TGF-β1 mRNA expression of the liver relative to the CCl4 control group” value with TGF-β1 (maximum over the doses tested) is 115%. Moreover, the “expression of TGF-β1 mRNA of the liver, result in words” value in the assay on TGF-β1 (vs CCl4 group) was “normalization”.
As for glucagon-like peptide-1 [GLP-1], the “inhibitory effects on free fatty acid-induced fat accumulation” value with HepG2 cells (100 nM) was determined as 28.0±4.9%.
